Experimental data as given in PubChem BioAssay (NCI).
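A five-concentration, 48-hour dose response in 96-well plates underlies each endpoint, interpolated linearly between surrounding concentrations. Here, GI50 denotes the concentration required for 50% inhibition of growth. Definition used: TGI = concentration required for complete inhibition of growth.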

What was measured:
Experiment in all cases: NCI tumour cell line growth inhibition, 48 h
RPMI-8226 leukemia = system: RPMI-8226 leukemia
ACHN renal = system: ACHN renal
RXF 393 renal = system: RXF 393 renal
UO-31 renal = system: UO-31 renal
SNB-19 CNS = system: SNB-19 CNS
LOX IMVI melanoma = system: LOX IMVI melanoma
U251 CNS = system: U251 CNS
KM12 colon = system: KM12 colon
SNB-75 CNS = system: SNB-75 CNS
MALME-3M melanoma = system: MALME-3M melanoma

Row | SMILES | TGI (RPMI-8226 leukemia) [µM] | TGI (ACHN renal) [µM] | TGI (RXF 393 renal) [µM] | TGI (UO-31 renal) [µM] | TGI (SNB-19 CNS) [µM] | TGI (LOX IMVI melanoma) [µM] | TGI (U251 CNS) [µM] | TGI (KM12 colon) [µM] | TGI (SNB-75 CNS) [µM] | TGI (MALME-3M melanoma) [µM] | GI50 (RPMI-8226 leukemia) | GI50 (MALME-3M melanoma) [nM] | GI50 (ACHN renal) [nM] | GI50 (RXF 393 renal) [nM] | GI50 (UO-31 renal) | GI50 (U251 CNS) [nM] | GI50 (SNB-19 CNS) [µM] | GI50 (LOX IMVI melanoma) | GI50 (KM12 colon) [nM] | GI50 (SNB-75 CNS) [µM]
1 | O=NC1c2cccc3cccc(c23)C1N=O (stereo not drawn) | 39.9 | 3.9 | 14.1 | 11.7 | 43.4 | 5.6 | 28.1 | 17 | 31.3 |  |  |  |  |  |  |  |  |  |  | 
2 | Cc1ccc(S(=O)(=O)N(/N=C(\N)Oc2ccc(Cl)cc2)C(=N)Oc2ccc(Cl)cc2)cc1 |  | > 100 | > 100 | > 100 | > 100 | > 100 | > 100 | > 100 | > 100 | > 100 |  |  |  |  |  |  |  |  |  | 
3 | O=C(CC(=O)N1N=C(c2ccccc2)C(N=Nc2ccc(C(=O)O)cc2)C1=O)Nc1ccc(F)cc1 (stereo not drawn) | 99 | > 100 | 25.3 | 73.4 | > 100 | > 100 |  |  |  | > 100 |  |  |  |  |  |  |  |  |  | 
4 | Cn1c2ccccc2c(=Nc2ccccc2)c2c3ccccc3[nH]c21 | 2.56 | 1.99 | 4.05 | > 100 |  |  | 2.45 |  |  | 1.8 | 1080 nM | 345 | 755 | 1840 | 1930 nM | 1150 |  |  |  | 
5 | O=C(O)c1c(O)c2cc(Br)ccc2oc1=O | > 100 | > 100 | > 100 |  | > 100 | > 100 | > 100 |  | > 100 | > 100 |  |  |  |  |  |  |  |  |  | 
6 | Nc1[nH]c(=O)ncc1F | > 100 | > 100 | > 100 | > 100 | > 100 | > 100 | > 100 | > 100 |  | > 100 |  |  |  |  |  |  |  |  |  | 
7 | O=C(c1cc(O)ccc1O)c1ccccc1C(Cl)(Cl)Cl | > 100 | > 100 | > 100 | > 100 | > 100 |  | > 100 | > 100 | > 100 | > 100 |  |  |  |  |  |  |  |  |  | 
8 | COc1ccc(C2OC(=O)c3c2ccc2ccccc32)c(C)c1 (stereo not drawn) | 60.9 | > 100 | > 100 | > 100 | > 100 |  | 20.2 | > 100 | 30.6 | 17.3 |  |  |  |  |  |  |  |  |  | 
9 | N#Cc1cccc(NC(=O)c2ccc(C(=O)O)c(C(=O)c3ccc(C(=O)O)c(C(=O)Nc4cccc(C#N)c4)c3)c2)c1 | > 100 |  | > 100 | > 100 | > 100 | > 100 | > 100 | > 100 | > 100 | > 100 |  |  |  |  |  |  |  |  |  | 
10 | C=C(CN1CCN(c2ccccc2OC)CC1)c1ccc(C(=O)Nc2ccccc2N)cc1 | > 50 | 4.95 |  | 16.4 | > 50 | 1.42 | 11.1 | 11.6 |  |  | 5110 nM |  | 856 |  | 7930 nM | 1700 | 12.1 | 243 nM | 3320 | 
11 | COc1ccc2cccc(C(=O)c3ccc(C)c4c3CCC4)c2c1 |  | > 100 | 73.5 | 82.4 | > 100 | 38.8 | > 100 | > 100 | > 100 | 72.8 |  |  |  |  |  |  |  |  |  | 
12 | S=c1nc(-c2nc(=S)[nH]c3c2CCCCCCCCCC3)c2c([nH]1)CCCCCCCCCC2 |  | > 100 | > 100 | > 100 | > 100 | > 100 | > 100 | > 100 | > 100 | > 100 |  |  |  |  |  |  |  |  |  | 
13 | C[Si](C)(C)/C=C/CCC(C=O)(CCCl)c1ccccc1 (stereo not drawn) |  | 73.2 | 54.6 | > 100 | > 100 | 36.2 | 33 | > 100 | 96.6 | 52.7 |  |  |  |  |  |  |  |  |  | 
14 | c1ccc2c(CNCCCCCCNCc3cccc4ccccc34)cccc2c1 | 6.79 | 29.5 | 6.9 | 23.9 |  | 3.5 | 22.8 | 15.1 | 6.68 | 3.42 |  |  |  |  |  |  |  |  |  | 
15 | C/C(=C\c1ccc(Cl)cc1)C(C)(C)C(=O)O | > 100 | > 100 | > 100 | > 100 | > 100 |  | > 100 | > 100 | > 100 | > 100 |  |  |  |  |  |  |  |  |  | 
16 | O=C(/C=C/c1ccc(C(F)(F)F)cc1)c1ccc(Nc2nc(NCCO)nc(NCCO)n2)cc1 | 5.23 | 15.6 | 3.44 | 4.33 |  | 3 |  | 4.17 | 13.6 | 18.8 | 2120 nM | 4950 | 4380 | 1600 | 1540 nM |  |  | 1560 nM | 2020 | 2.31
17 | Cc1c[nH]c2c1C13CC1CN(C(=O)c1cc4cc(NC(=O)c5cc6ccccc6o5)ccc4[nH]1)C3=CC2=O (stereo not drawn) |  |  | < 0.001 |  | 0.00481 | < 0.001 | < 0.001 | < 0.001 |  | < 0.001 | > 1.17 ng/mL |  |  |  | > 1.17 ng/mL |  |  | > 1.17 ng/mL |  | 
18 | O=C1c2ccccc2C(=O)c2c1ccc(C(Br)Br)c2[N+](=O)[O-] |  | 2.86 | 2.72 | 2.93 | 4.42 | 2.59 | 2.97 | 3.81 | 28.7 | 3.71 |  | 1940 | 1530 | 1260 | 1520 nM | 1600 | 1.93 | 1270 nM | 1850 | 14.1
19 | Nc1nc2c(ncn2C2OC(CO)C(O)C2N)c(=O)[nH]1 (stereo not drawn) |  | > 100 |  | > 100 | > 100 | > 100 | > 100 | > 100 | > 100 | > 100 |  |  |  |  |  |  |  |  |  | 
20 | COC(=O)C1=C(OC)c2cc3c(cc2C(c2cc(OC)c(OC)c(OC)c2)C1C(=O)OC)OCO3 (stereo not drawn) | > 100 | > 100 | > 100 | > 100 |  | > 100 | > 100 | > 100 | > 100 | > 100 |  |  |  |  |  |  |  |  |  | 
21 | CC1=NNC(=NCCN(C)C)C/C1=C/c1ccccc1Cl |  | > 100 | > 100 | > 100 | > 100 | > 100 | > 100 | > 100 | > 100 | > 100 |  |  |  |  |  |  |  |  |  | 
22 | Cc1cnc[nH]c1=O | > 100 | > 100 |  | > 100 | > 100 | > 100 | > 100 | > 100 | > 100 | > 100 |  |  |  |  |  |  |  |  |  | 
